Source: ChEMBL document CHEMBL1131625, “Neurosteroid analogues. 6. The synthesis and GABAA receptor pharmacology of enantiomers of dehydroepiandrosterone sulfate, pregnenolone sulfate, and (3alpha,5beta)-3-hydroxypregnan-20-one sulfate” (J Med Chem, 1998)

Tests used:
[1] = molecular target: GABA-A receptor; anion channel; test: Inhibitory activity against Gamma-aminobutyric acid A (GABA-A) receptor of rat hippocampal neurons; type: tissue-based, Hippocampus
Rattus norvegicus [2] = species: Rattus norvegicus; test: The Non-competitive block of GABA-mediated currents in cultured neurons from rat ventral mesencephalon; type: functional
Rattus norvegicus [3] = species: Rattus norvegicus; test: Inhibition of GABA-mediated currents by compound; type: functional

| Compound | IC50 [1] [µM] | Ki (Rattus norvegicus [2]) [µM] | Ki (Rattus norvegicus [3]) [µM] |
| --- | --- | --- | --- |
| CC(=O)[C@H]1CC[C@H]2[C@@H]3CC=C4C[C@@H](OS(=O)(=O)O)CC[C@]4(C)[C@H]3CC[C@]12C | 82 | – | – |
| C[C@]12CC[C@H](OS(=O)(=O)O)CC1=CC[C@@H]1[C@@H]2CC[C@]2(C)C(=O)CC[C@@H]12 | 11 | 13 | – |
| CC(=O)[C@@H]1CC[C@H]2[C@@H]3CC[C@H]4C[C@@H](OS(=O)(=O)O)CC[C@@]4(C)[C@H]3CC[C@@]12C | – | – | 47 |
| CC(=O)[C@H]1CC[C@H]2[C@@H]3CC[C@@H]4C[C@H](OS(=O)(=O)O)CC[C@]4(C)[C@H]3CC[C@]12C | 39 | – | 39 |
| CC(=O)[C@@H]1CC[C@@H]2[C@H]3CC=C4C[C@H](OS(=O)(=O)O)CC[C@@]4(C)[C@@H]3CC[C@]21C | 76 | – | – |
| C[C@@]12CC[C@@H]3[C@H](CC=C4C[C@H](OS(=O)(=O)O)CC[C@]43C)[C@H]1CCC2=O | 80 | 81 | – |
